From patent US11612605B2, “(+)-azasetron for use in the treatment of ear disorders” (SENSORION, priority 2016, dated 2023)

Test system: SSNHL after acoustic trauma
Test: SSNHL model: acoustic trauma (120 dB octave band noise), ABR and DPOAE audiometry
Format: in vivo, male Wistar rats
Procedure: All experiments were performed using 7-week-old male Wistar rats (CERJ, Le Genest, France) in accordance with the French Ministry of Agriculture regulations and European Community Council Directive no. 86/609/EEC, OJL 358. The rats were fed a standard diet ad libitum and maintained on a 12 hours' light-dark cycle.
Auditory Brainstem Reponses (ABR) and Distortion Product Otoacoustic Emissions (DPOAE) were recording using a RZ6 Auditory Workstation (Tucker-Davis Technologies, Alachua, Fla., USA) with animals deeply anesthetized using 90 mg/kg ketamine and 10 mg/kg xylazine and placed on a 35° C. recirculating heating pad inside a sound attenuating cubicle (Med Associates Inc., St. Albans, Vt., USA) throughout the experiment.
For ABR recordings, three stainless steel needle electrodes were placed subdermally over the vertex, the right mastoid and right hind leg of each animal. Tone-pips (5 msec duration presented at a rate of 21/s) at 8, 16 and 24 kHz were delivered to the right ear using a calibrated MF-1 speaker in closed-field configuration (Tucker-Davis Technologies, Alachua, Fla., USA) at attenuating intensity until no reproducible response could be recorded. Close to the ABR threshold, the responses to 1000 acoustic stimuli in 5 dB steps were averaged. Responses were low-pass filtered at 3 kHz.
DPOAEs were recorded and using ER10B+ Low Noise DPOAE microphone (Etymotic Research, Inc., Elk Grove Village, Ill., USA) with acoustic stimuli delivered by two calibrated MF-1 speakers in closed-field configuration (Tucker-Davis Technologies, Alachua, Fla., USA). DPOAEs were recorded at fixed stimulus levels (L1=L2=70 dB SPL), with an f2/f1 ratio of 1.2. Responses were recorded at 4, 8, 16, 24 and 32 kHz.
Animals were exposed to 120 dB octave band noise (8-16 kHz) for 2 hours in groups of 4 rats, placed in individual compartments of a custom built circular cage placed on a 30-cm diameter platform rotating at 3 turns/minute (Aqila Innovation, Valbonne, France). The calibrated octave band noise generated by the RZ6 SigGen software was further amplified by a Crown D-75 amplifier in bridge mode (Crown Audio, Elkhart, Ind., USA) and delivered by four Beyma CPI6 compression tweeters (Acustica Beyma S. L., Moncada, Valencia, Spain) positioned 39 cm above the rotating platform, each 10 cm from the platform center.
The ability of the racemic and two enantiomers of azasetron hydrochloride to reduce SSNHL after acoustic trauma was evaluated in a randomized, vehicle-controlled study with 7 weeks old male Wistar rats. Rats were randomized to receive 4.22 mg/kg of the racemic, two enantiomers of azasetron or vehicle control (physiological saline) by intraperitoneal injection immediately after acoustic trauma, followed by daily dosing for a total of 14 days. Two days prior to acoustic trauma, baseline audiometric readings using auditory brainstem response (ABR) (8, 16, and 24 kHz) were recorded for each animal. Animals were exposed to 120-dB octave-band noise (8-16 kHz) for 2 hours to induce acoustic trauma.
The ability of the (+)-enantiomer of azasetron hydrochloride to reduce SSNHL after acoustic trauma was evaluated in a randomized, vehicle-controlled study in male Wistar rats, 7 weeks of age. Rats were randomized to receive 5, 10, or 20 mg/kg of the (+)-enantiomer of azasetron hydrochloride or vehicle control (physiological saline) by oral gavage immediately after acoustic trauma, followed by daily dosing for a total of 14 days. Two days prior to acoustic trauma, baseline audiometric readings using auditory brainstem response (ABR) (8, 16, and 24 kHz) and distortion-product otoacoustic emissions (DPOAE) (4, 8, 16, 24, and 32 kHz) were recorded for each animal. Post-trauma audiometry recordings were conducted at 14 days.
The ability of the racemic azasetron hydrochloride by oral administration to reduce SSNHL after acoustic trauma was also evaluated. […]

[1] = 10 mg/kg oral gavage daily 14 days after acoustic trauma
[2] = 10 mg/kg oral gavage daily 14 days, baseline to day 14
[3] = 20 mg/kg oral gavage daily 14 days, baseline to day 14

Row | Structure (SMILES) | protective effect on ABR thresholds [1] | protective effect on DPOAE amplitude loss [1] | ABR threshold shifts compared with racemic azasetron, (−)-enantiomer and vehicle (4.22 mg/kg intraperitoneal, daily for 14 days after acoustic trauma, 8, 16, 24 kHz) | mean improvement in hearing (ABR) [2] [dB] | mean reduction of ABR threshold shifts [2] [%] | mean improvement in hearing (ABR) [3] [dB] | mean reduction of ABR threshold shifts [3] [%] | mean reduction of DPOAE amplitude loss [3] [%] | reduction of hearing loss (average) by ASLHA criteria versus vehicle control (10- and 20-mg/kg oral doses)
1 | CN1C(=O)COc2c(C(=O)NC3CN4CCC3CC4)cc(Cl)cc21 (racemic) [Racemic azasetron, N-(1-azabicyclo[2.2.2]octan-8-yl)-6-chloro-4-methyl-3-oxo-1,4-benzoxazine-8-carboxamide] | small tendency towards a protective effect | small tendency towards a protective effect | – | – | – | – | – | – | –
2 | CN1C(=O)COc2c(C(=O)N[C@H]3CN4CCC3CC4)cc(Cl)cc21 [(+)-azasetron] | – | – | reduced ABR threshold shifts more than racemic azasetron or (−)-enantiomer | 22.3 | 35.1 | 19.4 | 30.5 | 51.2 | from moderately severe (56 to 70 dB) to mild/moderate (26 to 40 dB/41 to 55 dB)
